# Measured values from paper PMC10035370, “Targeting Tumor Angiogenesis with the Selective VEGFR-3 Inhibitor EVT801 in Combination with Cancer Immunotherapy” (Cancer Research Communications, 2022).
# Where two headings read alike, the source gives them in different places.
# How the values were obtained:
# BNL-R3 tumors = assay: VEGFR3 expressing BNL tumor model (BNL-R3); assay type: in vivo, mice
# Description: A total number of 60 female BALB/c mice were injected subcutaneously on the flank with 2 x 10^6 cells in 250 μL PBS buffer/growth factor reduced Matrigel®. Mice were then kept in a post-operative cabinet at 28 °C until complete recovery. Assuming an ovoid form, tumor volume in mm3 was calculated using digital callipers according to the following formula: V = 0.52 x (width)² x length. On day 7, mice were randomized into 4 groups of 11 mice and 1 group with 16 mice, according to mean tumor volume via cage equalizer software. Subsequently, tumor volume was measured on days 11, 13, 15, 18, 19 and 21 following tumor cell injection. The selected groups received vehicle or EVT801 orally in a volume of 10 mL/kg. Mice body weight was measured daily before dosing. On the day of termination, mice were anaesthetized to facilitate 500 μL blood withdrawal by puncture of the jugular vein. Three mice per group and per time point (i.e., 0.5, 2, 4 and 24 h after the last dosing) were allocated for pharmacokinetic study. Spleens of 3 mice per group were collected, and immune cell populations were separated from dissociated splenocytes via MACS, and subjected to flow cytometry analysis.
# Pharmacokinetics in mice = assay type: in vivo; settings: mouse; for half-life / Cmax / AUC(0-t): plasma; for AUC(0-t): read-out: AUC(0–24)
# Description: Plasma samples and tumor homogenates were mixed with the precipitant solution (acetonitrile containing internal standard). The supernatant (180 µL) was transferred in a 96-well plate and 5 µL were injected. EVT801 and its main metabolite were quantified by LC-MS/MS following standard conditions.
# Quality control (QC) samples and calibration samples were prepared daily by spiking mouse plasma and tumor homogenates with working solutions prepared from independent weighing. The calibration curve was calculated from calibration levels at 1, 2.5, 5, 10, 25, 50, 100, 200, 500, 1000 and 2000 ng/mL. A variation of ± 20 % versus the nominal concentrations was used as criteria for qualification of samples; at least 75 % of all standards needed to be within this window, and at least 6 concentration values within tis window were used for quantification. The concentrations for QC samples were 5, 50, 150, 450 and 1500 ng/mL. At least 66 % of all QC samples, and at least 50 % of QC samples at a given concentration were within the ± 20 % window. Quadratic regressions were applied, not forced through the origin, and weighted by 1/x (with R^2 > 0.98). The lower limit of quantification for both compounds was set to 1 ng/mL for plasma and to 3 ng/g for tumor samples.
# RT-HAM-001 tumors = assay: RT-001-HAM subcutaneous patient-derived xenograft tumor mouse model; assay type: in vivo, mice; settings: 30 mg/kg twice per day, 7-day treatment
# Description: Patient-derived tumors of the same passage were transplanted subcutaneously outbred athymic (nu/nu) female HSD mice. When tumor volume reached 726 to 1,437 mm^3, 4 donor mice were sacrificed by cervical dislocation, and tumors were aseptically excised and dissected. After removing necrotic areas, tumor fragments of approximately 20 mm^3 were transferred to culture medium before grafting. A total of 108 mice were anesthetized with 100 mg/kg ketamine hydrochloride (Virbac) and 10 mg/kg xylazine (Bayer). Then, a tumor fragment was placed in the subcutaneous tissue of an incision at the level of the interscapular region as described previously ([30]). All mice from the same experiment were implanted on the same day. A total of 54 mice with RT-001-HAM established growing tumor (P6.0.0/0) between 62.5 and 196 mm^3 were allocated according to tumor volume, ensuring homogenous median and mean tumor volume in each treatment arm. Treatments with 5 mL/kg vehicle, 30 mg/kg EVT801, or 30 mg/kg pazopanib started 15 days after tumor implantation and continued twice per day until termination 7 days later. Tumor volumes were measured via a caliper three times a week during the treatment period. All animals were weighed at the same time as tumor size measurement. Plasma and fresh tumor samples were collected at different timepoints after final dose at day 7 from all mice.
# tubule formation = assay: Mouse aortic ring assay stimulated by a 4T1 tumor fragment; assay type: cell-based; settings: 300 nM, day 8
# Description: Neo-angiogenesis was studied in vitro by culturing rings of mouse thoracic aorta in 3-dimensional collagen gels, as previously described (2), but the mouse serum was replaced by a piece of 4T1 tumor. Briefly, 1 mm-long aortic ring-shaped fragments of 9-week old C57Bl/6J mice, and 1 mm^3 4T1 tumor pieces resected 21 days after orthotopic injection in mammary fat pad of BALB/c mice were embedded in a rat tail interstitial collagen gel (1.5 mg/mL). It was prepared by mixing 7.5 volumes of 2 mg/mL collagen (Collagen R, Serva), 1 volume of 10 x minimum essential medium (MEM, Life Technologies Ltd.), 1.5 volumes of NaHCO3 (15.6 mg/mL), and 0.1 volume 1 M NaOH to adjust the pH to 7.4. The collagen gels containing the aortic rings were polymerized in cylindrical agarose wells, and kept in triplicate at 37 °C in 60 mm diameter Petri dishes (bacteriological polystyrene; Falcon, Becton Dickinson). Each dish contained 6 mL of MCDB131 (Life Technologies Ltd.) supplemented with 25 mM NaHCO3, 1 % glutamine, 100 U/mL penicillin, and 100 µg/mL streptomycin. The cultures were kept at 37 °C in a humidified environment for 8 days and examined every other day with a Nikon microscope at appropriate magnification. […] Quantification of pseudo-tubules was performed at day 8 using an automated computer-assisted image analysis system (Morpho Expert V2.50, Explora Nova, La Rochelle, France). […]
# DEN-induced liver tumor = assay: N-diethylnitrosamine-induced hepatocarcinoma mouse model; assay type: in vivo, mice; settings: daily doses of 100 mg/kg for 2 months
# Description: After weighing, 38 male C3/H mice received a 10 mg/kg dose of N-diethylnitrosamine (DEN) intraperitoneally, whereas a group of 5 animals was kept without DEN injection as control group. After 12 months, mice that received DEN injection were randomized by weight in two groups of each 19 animals. The mice were dosed daily orally for 2 months either with EVT801 or vehicle. On the day of termination, mice treated with EVT801 received a last dose of 30 mg/kg to take blood and tumor samples for compound concentration determination. After incision of the peritoneal cavity, blood was taken from the vena cava. Following excision and weighing of the liver, the number of tumors per liver was counted. The tumor burden was calculated as the sum of individual tumor volumes for each mouse. No blood sampling was performed on control and vehicle groups. Plasma and tumor samples were stored at −20°C until analysis. Concentration of EVT801 was determined by LC/MS-MS.
compound,measurement,setting,value
CCn1c(N)c(-c2ncc[nH]2)c(=O)c2ccc(C#C[C@@](C)(O)COC)nc21 [EVT801],"T/C ratio, tumor growth",BNL-R3 tumors; 10 mg/kg twice per day,31%
same,decrease of number of vessels,BNL-R3 tumors; 10 mg/kg twice per day,60%
same,decrease of total vessel surface,BNL-R3 tumors; 10 mg/kg twice per day,35%
same,"T/C ratio, tumor growth",BNL-R3 tumors; 30 mg/kg twice per day,10%
same,decrease of number of vessels,BNL-R3 tumors; 30 mg/kg twice per day,83%
same,decrease of total vessel surface,BNL-R3 tumors; 30 mg/kg twice per day,29%
same,tumor hypoxia,"BNL-R3 tumors; both doses, 10 and 30 mg/kg twice per day",decreased hypoxia
same,infiltration of CD3+ cells in the tumor,BNL-R3 tumors; endpoint,increased
same,half-life,"Pharmacokinetics in mice; Balb/c, 30 mg/kg, Balb/c mice, 30 mg/kg, read-out: T1/2 in plasma (converted)",2.7 h
same,half-life,"Pharmacokinetics in mice; Balb/c, 100 mg/kg, Balb/c mice, 100 mg/kg, read-out: T1/2 in plasma (converted)",1.1 h
same,half-life,"Pharmacokinetics in mice; Balb/c, 100 mg/kg, Balb/c with 4T1 tumor, 100 mg/kg for 2 weeks",3.2 h
same,half-life,"Pharmacokinetics in mice; SCID, 10 mg/kg, SCID mice with tumor, 10 mg/kg for 2 weeks, read-out: T1/2 in plasma (converted)",0.9 h
same,half-life,"Pharmacokinetics in mice; SCID, 30 mg/kg, SCID mice with tumor, 30 mg/kg for 2 weeks, read-out: T1/2 in plasma (converted)",1.6 h
same,Cmax,"Pharmacokinetics in mice; oral, 100 mg/kg/day",8940 ng/mL
same,AUC(0-t),"Pharmacokinetics in mice; oral, 100 mg/kg/day",22000 ng·h/mL
same,Cmax,"Pharmacokinetics in mice; po, 30 mg/kg twice per day",8390 ng/mL
same,AUC(0-t),"Pharmacokinetics in mice; po, 30 mg/kg twice per day",28000 ng·h/mL
same,Kp,"Pharmacokinetics in mice; Balb/c with 4T1 tumor, 100 mg/kg for 2 weeks, read-out: Tissue to plasma (AUC)",0.88
same,"T/C ratio, tumor volume",RT-HAM-001 tumors,41%
same,size of necrotic areas in tumors,RT-HAM-001 tumors,decreased
same,hypoxic areas (CAIX) in tumors,RT-HAM-001 tumors; not statistically significant,appeared to decrease hypoxia in half of the tumors
same,tubule formation (tubule length),tubule formation,prevents tumor-induced tubule formation almost completely
same,"T/C ratio, tumor volume",DEN-induced liver tumor,22%
same,liver weight,DEN-induced liver tumor,fully prevented the increase in liver weight
